We go through 17 compounds from patent US10828305B2 (SHANGHAI PHARMACEUTICALS HOLDING CO., LTD., priority 2016, dated 2020).

One test relates to N87. The test is described as follows: Proliferation inhibition assay in vitro, N87 (CellTiter-Glo). The test is classed as cell-based. As to conditions: Homo sapiens; 72 hours; read-out: IC50(nM) cell N87. Here is the method: (§1) Proliferation Inhibition Assay In Vitro of Cell Lines
(§2) 1. Cell culture and inoculation: on the first day of the experiment, normal cultured cells were taken in the exponential growth phase, the cells were dispersed by digesting, then the cell density was adjusted to 8.8×10^4 cells/mL for BT-474 and 6.6×10^4 cells/mL for N87, 90 μl of which were inoculated to each well in a 96-well cell culture plate; after inoculation, the microplate was placed at condition of 37° C., 5% CO2 overnight. 2. Dosing to cells: on the second day of the experiment, the microplate was taken out from incubator, […], of 10× compound was separately added to each well of the microplate, 2 duplicated wells were set for each concentration, 9 dosing concentrations were set for each compound. According to different cell lines, the initial concentration of each compound was different. Upon completion of addition, the microplate was placed at condition of 37° C., 5% CO2 for 72 hours. 3. Data acquisition: the microplate was taken out from the incubator and allowed to stand at room temperature to equilibrate for 30 minutes. 100 μl CellTiter-Glo® Luminescent Cell Viability Assay reaction solution which had been equilibrated at room temperature was added to each well and the microplate was shaken at 1300 rpm for 2 minutes at room temperature. The microplate was centrifuged at 2000 rpm for 1 minute in a HERAEUS Multifuge X1R and then allowed to equilibrate at room temperature for 10 minutes. The […] signal was measured on EnVision™.
(In general: ATP-based viability assays read luminescence as a measure of living cells.)

For another test, the target named is EGFR kinase (Homo sapiens, UniProt P00533). Description: Enzymatic experiment on EGFR (HTRF kinEASE-TK). The test is classed as biochemical. The following applies: ATP 1.65 μM; read-out: Kinase IC50 (nM) in vitro EGFR. The method, then: (§3) Enzymatic Experiment on EGFR/ErbB2
Sequence of EGFR kinase (P00533 25-1210): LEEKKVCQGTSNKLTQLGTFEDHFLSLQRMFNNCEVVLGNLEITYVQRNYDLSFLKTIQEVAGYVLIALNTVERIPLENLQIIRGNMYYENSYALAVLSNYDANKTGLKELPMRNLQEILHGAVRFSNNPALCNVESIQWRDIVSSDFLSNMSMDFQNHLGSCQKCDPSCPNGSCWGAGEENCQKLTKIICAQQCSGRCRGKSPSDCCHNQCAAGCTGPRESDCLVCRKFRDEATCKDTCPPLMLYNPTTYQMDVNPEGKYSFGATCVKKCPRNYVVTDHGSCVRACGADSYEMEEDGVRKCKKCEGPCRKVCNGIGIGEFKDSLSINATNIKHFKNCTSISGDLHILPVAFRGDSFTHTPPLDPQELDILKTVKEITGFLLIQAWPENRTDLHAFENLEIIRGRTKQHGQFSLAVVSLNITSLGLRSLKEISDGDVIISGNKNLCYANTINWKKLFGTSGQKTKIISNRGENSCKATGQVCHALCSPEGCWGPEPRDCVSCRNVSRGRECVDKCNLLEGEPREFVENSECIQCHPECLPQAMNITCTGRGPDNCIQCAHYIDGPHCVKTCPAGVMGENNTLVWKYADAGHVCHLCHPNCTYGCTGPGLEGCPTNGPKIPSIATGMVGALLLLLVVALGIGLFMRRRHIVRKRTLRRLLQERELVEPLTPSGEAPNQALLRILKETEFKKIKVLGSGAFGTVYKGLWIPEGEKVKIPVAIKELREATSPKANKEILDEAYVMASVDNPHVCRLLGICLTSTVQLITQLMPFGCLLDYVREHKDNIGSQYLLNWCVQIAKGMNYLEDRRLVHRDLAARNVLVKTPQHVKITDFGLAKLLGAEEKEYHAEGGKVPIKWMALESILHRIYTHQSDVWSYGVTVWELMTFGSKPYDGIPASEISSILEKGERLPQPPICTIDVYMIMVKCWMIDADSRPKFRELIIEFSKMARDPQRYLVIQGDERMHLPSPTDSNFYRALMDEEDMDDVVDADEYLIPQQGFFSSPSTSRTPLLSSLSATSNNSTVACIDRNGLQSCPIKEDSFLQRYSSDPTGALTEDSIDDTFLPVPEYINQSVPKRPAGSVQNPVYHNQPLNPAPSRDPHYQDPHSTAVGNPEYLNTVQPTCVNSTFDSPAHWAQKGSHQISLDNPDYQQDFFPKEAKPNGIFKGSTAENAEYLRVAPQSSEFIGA
(§4) Firstly, preparing 1× reaction buffer required for the kinase, 5× Enzymatic buffer (HEPES 20 mM pH7.0, NaN3 0.1%, BSA 0.05%, sodium orthovanadate 0.5 mM) in the HTRF kinEASE-TK kit was diluted to 1 time with deionized water, 50 nM Supplement Enzymatic buffer (SEB reagent), 1 mM MnCl2, 5 mM MgCl2 and 1 mM DTT were added. Secondly, preparing 5× compound, 10 mM test compound stock solution was diluted in multiple steps with DMSO in a 96-well compound plate to prepare 100× compound as initial concentration, which was then used as the first concentration to perform a 3-fold gradient dilution with DMSO to obtain 10 concentrations. Afterwards, 1 μl gradient dilution was added to 19 μl 1× reaction buffer to prepare 5× compound for use. Then 2 μl 5× compound was transferred from the 96 well plate into a 384-well plate. To the compound-free control wells was added with 2 μl the following liquid: 19 μl 1× reaction buffer with addition of 1 μl DMSO. To the blank control wells was added 2 μl 250 mM EDTA. The third step was enzymatic reaction, the kinase, substrate (TK Substrate-biotin) and ATP were formulated into 2.5× enzyme/substrate mixture and 2.5×ATP solution using 1× reaction buffer respectively. The final concentration of ErbB2 kinase was 0.06 ng/μl, the final concentration of ATP was 4 μM; the final concentration of EGFR kinase was 0.06 units/μl, the final concentration of ATP was 1.65 μM; 4 μl 2.5× enzyme/substrate mixture was added to a 384-well plate, which was incubated at room temperature for 5 minutes; 4 μl 2.5×ATP solution was added to each well and the mixture was allowed to react for 30 minutes at room temperature. The fourth step was termination of the reaction, HTRF Detection buffer was used to prepare a mixture of 2×TK Antibody-Eu(K) and Sa-XL665, the amount of TK Antibody-Eu(K) was 5 μl per well. After the enzymatic reaction was performed for 30 minutes, 10 μl of the above liquid was added to the 384-well plate and the mixture was allowed to react at room temperature for 1 hour. The data was measured on EnVision™, the laser of 337 nm wavelength was selected as the excitation light, RFU665 nM and RFU620 nM were measured, and […]/RFU620 nM×10000 was used as the final data for analysis.
In general terms: TR-FRET usually uses a lanthanide donor and a delayed reading to cut background.

A further test deals with BT-474. The test is described as follows: Proliferation inhibition assay in vitro, BT-474 (CellTiter-Glo). The class given is cell-based. As to conditions: Homo sapiens, 72 hours, read-out: IC50(nM) cell BT-474. Here is the method: as §1, §2
A further test deals with ErbB2 kinase (Homo sapiens, UniProt P04626). Description: Enzymatic experiment on ErbB2 (HTRF kinEASE-TK). The test is classed as biochemical. The following applies: ATP 4 μM; read-out: Kinase IC50 (nM) in vitro ErbB2. Here is the method:
as §3, §4

Sequence of ErbB2 kinase (P04626 23-1255): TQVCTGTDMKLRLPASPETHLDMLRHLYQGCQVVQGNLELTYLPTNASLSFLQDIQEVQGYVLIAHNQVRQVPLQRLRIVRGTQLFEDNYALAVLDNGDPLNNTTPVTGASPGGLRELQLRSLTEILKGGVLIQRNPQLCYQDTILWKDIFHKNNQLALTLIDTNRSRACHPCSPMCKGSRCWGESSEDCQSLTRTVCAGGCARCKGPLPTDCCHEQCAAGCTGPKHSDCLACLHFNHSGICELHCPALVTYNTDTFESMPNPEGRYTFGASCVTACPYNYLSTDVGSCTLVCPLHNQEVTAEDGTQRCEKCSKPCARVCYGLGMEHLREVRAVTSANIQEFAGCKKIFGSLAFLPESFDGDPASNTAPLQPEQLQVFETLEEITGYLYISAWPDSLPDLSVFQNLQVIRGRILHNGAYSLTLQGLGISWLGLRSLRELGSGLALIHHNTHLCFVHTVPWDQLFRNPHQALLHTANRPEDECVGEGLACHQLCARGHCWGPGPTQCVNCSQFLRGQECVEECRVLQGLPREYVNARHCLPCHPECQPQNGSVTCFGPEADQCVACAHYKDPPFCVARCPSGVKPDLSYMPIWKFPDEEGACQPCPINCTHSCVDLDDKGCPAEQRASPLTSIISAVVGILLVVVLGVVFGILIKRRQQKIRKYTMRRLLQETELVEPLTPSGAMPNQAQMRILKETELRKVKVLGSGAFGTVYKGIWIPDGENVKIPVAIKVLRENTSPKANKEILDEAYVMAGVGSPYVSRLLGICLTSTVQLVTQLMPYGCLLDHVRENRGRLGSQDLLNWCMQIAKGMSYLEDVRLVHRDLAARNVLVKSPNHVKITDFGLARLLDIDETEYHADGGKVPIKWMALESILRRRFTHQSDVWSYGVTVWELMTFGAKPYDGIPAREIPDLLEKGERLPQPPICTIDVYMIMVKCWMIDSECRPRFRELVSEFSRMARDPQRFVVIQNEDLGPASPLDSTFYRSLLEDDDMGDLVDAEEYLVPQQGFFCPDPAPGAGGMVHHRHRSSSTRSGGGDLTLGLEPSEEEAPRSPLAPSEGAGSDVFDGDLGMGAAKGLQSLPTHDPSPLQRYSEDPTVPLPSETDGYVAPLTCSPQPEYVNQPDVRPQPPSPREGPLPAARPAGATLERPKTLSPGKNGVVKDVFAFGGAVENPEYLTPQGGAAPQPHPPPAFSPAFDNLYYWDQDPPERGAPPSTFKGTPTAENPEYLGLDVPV

A word on the IC50: it is the midpoint of a concentration-inhibition curve. As to `CCC1COC(Nc2ccc3ncnc(Nc4ccc(Oc5cc6nncn6cn5)c(C)c4)c3c2)=N1` (centres unmarked) [Embodiment 129, N^4-(4-([1,2,4]triazolo[4,3-c]pyrimidin-7-yloxy)-3-methylphenyl)-N^6-(4-ethyl-4,5-dihydrooxazol-2-yl)quinazolin-4,6-diamine], the half-maximal inhibitory concentration (IC50) in the test with N87 is 121 nM; on EGFR kinase, 56.9 nM; in the test with BT-474 it was 189 nM; on ErbB2 kinase, 4.4 nM.

For `Cc1cc(Nc2ncnc3ccc(NC4=NC(C)(C)CS4)cc23)ccc1Oc1cc2nncn2cn1` [Embodiment 9, N^4-(4-([1,2,4]triazolo[4,3-c]pyrimidin-7-yloxy)-3-methylphenyl)-N^6-(4,4-dimethyl-4,5-dihydrothiazol-2-yl)quinazoline-4,6-diamine], the IC50 with N87 was found to be 39.5 nM; at EGFR kinase, 35.9 nM; with BT-474, 33.4 nM; at ErbB2 kinase, 7.4 nM.

Regarding `Cc1cc(Nc2ncnc3ccc(NC4=NC5(CCCC5)CO4)cc23)ccc1Oc1cc2nncn2cn1` [Embodiment 87], the half-maximal inhibitory concentration (IC50) came to 25.3 nM in the test with N87, 6.5 nM at EGFR kinase, 15.3 nM in the test with BT-474 and 1.9 nM on ErbB2 kinase.

For `CNC(=O)CN1CCC(Oc2cc3c(Nc4ccc(Oc5cc6nncn6cn5)c(C)c4)ncnc3cc2OC)CC1` [Embodiment 32, 2-(4-(7-methoxy-4-(3-methyl-4-([1,2,4]triazolo[4,3-c]pyrimidin-7-yloxy)anilino)quinazolin-6-yl)oxy-1-piperidinyl)-N-methylacetamide], the IC50 in the test on N87 stood at 440 nM; at EGFR kinase, 2 nM; with BT-474, 92.6 nM; at ErbB2 kinase it was 4.3 nM.

Take `C=CC(=O)Nc1cncc(-c2ccc3ncnc(Nc4ccc(Oc5cc6nncn6cn5)c(C)c4)c3c2)c1` [Embodiment 52, N-(5-(4-((4-([1,2,4]triazolo[4,3-c]pyrimidin-7-yloxy)-3-methylphenyl)amino)quinazolin-6-yl)pyridin-3-yl)acrylamide]: the IC50 with N87 came out at 117 nM; on EGFR kinase, 21.6 nM; with BT-474, 30.4 nM; on ErbB2 kinase, 2.35 nM.

For the compound `Cc1cc(Nc2ncnc3ccc(NC(=O)/C=C/[C@@H]4CCCN4)cc23)ccc1Oc1cc2nncn2cn1` [Embodiment 96, (S,E)-N-(4-((4-([1,2,4]triazolo[4,3-c]pyrimidin-7-yloxy)-3-methylphenyl)amino)quinazolin-6-yl)-3-(pyrrolidin-2-yl)acrylamide], the IC50 in the test with N87 was found to be 93.5 nM; at EGFR kinase, 3.79 nM; with BT-474, 55.9 nM; on ErbB2 kinase, 3.43 nM.

With `Cc1cc(Nc2ncnc3ccc(-c4ccc(CN(C)CCS(C)(=O)=O)o4)cc23)ccc1Oc1cc2nncn2cn1` [Embodiment 105], the IC50 in the test on N87 was 17.3 nM; on EGFR kinase, 26 nM; in the test with BT-474, 22.9 nM; on ErbB2 kinase, 1.2 nM.

Regarding `Cc1cc(Nc2ncnc3ccc(Br)cc23)ccc1Oc1cc2nncn2cn1` [Embodiment 5, N-(4-([1,2,4]triazolo[4,3-c]pyrimidin-7-yloxy)-3-methylphenyl)-6-bromoquinazolin-4-amine], the IC50 in the test on N87 came to 313 nM; on EGFR kinase, 703 nM; with BT-474, 460 nM; on ErbB2 kinase, 12.9 nM.

Take `Cc1cc(Nc2ncnc3ccc(-c4ccc(CO)o4)cc23)ccc1Oc1cc2nncn2cn1` [Embodiment 60, (5-(4-((4-([1,2,4]triazolo[4,3-c]pyrimidin-7-yloxy)-3-methylphenyl)amino)quinazolin-6-yl)furan-2-yl)methanol]: the IC50 came to 23.4 nM in the test on N87, 15.6 nM at EGFR kinase, 108 nM in the test with BT-474 and 1.1 nM on ErbB2 kinase.

As for `C=CC(=O)Nc1ccc(-c2ccc3ncnc(Nc4ccc(Oc5cc6nncn6cn5)c(C)c4)c3c2)cn1` [Embodiment 54, N-(5-(4-((4-([1,2,4]triazolo[4,3-c]pyrimidin-7-yloxy)-3-methylphenyl)amino)quinazolin-6-yl)pyridin-2-yl)acrylamide], the IC50 in the test with N87 came out at 150 nM; on EGFR kinase, 370 nM; in the test with BT-474, 32.8 nM; at ErbB2 kinase, 6.4 nM.

`C=CC(=O)N1CCC=C(c2ccc3ncnc(Nc4ccc(Oc5cc6nncn6cn5)c(C)c4)c3c2)C1` [Embodiment 120, 1-(5-(4-((4-([1,2,4]triazolo[4,3-c]pyrimidin-7-yloxy)-3-methylphenyl)amino)quinazolin-6-yl)-3,6-dihydropyridin-1(2H)-yl)prop-2-en-1-one]: the IC50 in the test on N87 is 2.68 nM; on EGFR kinase, 7.41 nM; with BT-474 it was 5.85 nM; on ErbB2 kinase, 1.31 nM.

Take `Cc1cc(Nc2ncnc3ccc(-c4ccc(CN5CCN(C)CC5)o4)cc23)ccc1Oc1cc2nncn2cn1` [Embodiment 61]: the IC50 with N87 is 35.4 nM; on EGFR kinase it was 44.7 nM; with BT-474, 48.9 nM; at ErbB2 kinase, 6 nM.

In the case of `CC1(C)COC(Nc2ccc3ncnc(Nc4ccc(Oc5cc6nncn6cn5)c(Cl)c4)c3c2)=N1` [Embodiment 78, N′-[3-chloro-4-([1,2,4]triazolo[4,3-c]pyrimidin-7-yloxy)phenyl)-N^6-(4,4-dimethyl-4,5-dihydrooxazol-2-yl)quinazolin-4,6-diamine], the IC50 with N87 was found to be 22.3 nM; at EGFR kinase, 3.3 nM; in the test on BT-474, 13.2 nM; on ErbB2 kinase it was 1.8 nM.

`Cc1cc(Nc2ncnc3ccc(NC4=NCC5(CCN(C(=O)OC(C)(C)C)CC5)O4)cc23)ccc1Oc1cc2nncn2cn1` [Embodiment 25, tert-butyl 2-((4-((4-([1,2,4]triazolo[4,3-c]pyrimidin-7-yloxy)-3-methylphenyl)amino)quinazolin-6-yl)amino)-1-oxa-3,8-diazaspiro[4.5]dec-2-en-8-carboxylate]: the IC50 with N87 amounted to 464 nM; at EGFR kinase it was 499 nM; in the test on BT-474, 984 nM; on ErbB2 kinase, 53.3 nM.

`Cc1cc(Nc2ncnc3ccc(NC4=N[C@H](C)CO4)cc23)ccc1Oc1cc2nncn2cn1` [Embodiment 7, (R)—N^4-(4-([1,2,4]triazolo[4,3-c]pyrimidin-7-yloxy)-3-methylphenyl)-N^6-(4-methyl-4,5-dihydrooxazol-2-yl)quinazoline-4,6-diamine]: the IC50 worked out at 71 nM with N87, 164 nM on EGFR kinase, 45 nM in the test on BT-474 and 8.1 nM on ErbB2 kinase.

For `Cc1cc(Nc2ncnc3ccc(NC(=O)CC(C)(C)O)cc23)ccc1Oc1cc2nncn2cn1` [Embodiment 17, N-(4-((4-([1,2,4]triazolo[4,3,c]pyrimidin-7-yloxy)-3-methylphenyl)amino)quinoline-6-yl)-3-hydroxy-3-methylbutanamide], the IC50 in the test on N87 was 712 nM; at EGFR kinase it was 80.9 nM; in the test with BT-474, 304 nM; on ErbB2 kinase it was 7.9 nM.

As to `Cc1cc(Nc2ncnc3ccc(-c4ccc(CN5CCN(S(C)(=O)=O)CC5)o4)cc23)ccc1Oc1cc2nncn2cn1` [Embodiment 22, N-(4-([1,2,4]triazolo[4,3-c]pyrimidin-7-yloxy)-3-methylphenyl)-6-(5-((4-(methanesulfonyl)piperazin-1-yl)methyl)furan-2-yl)quinazolin-4-amine], the concentration for half-maximal inhibition (IC50) with N87 stood at 35.6 nM; at EGFR kinase, 18 nM; with BT-474 it was 40.7 nM; on ErbB2 kinase it was 4.1 nM.
